Target: p53 Y220C in MT373 tumors (Homo sapiens, UniProt P04637, Y220C)
Experiment: MT373 syngeneic sarcoma model: mutant, WT and total p53 ELISA in tumors
Assay type: in vivo, mouse
Settings: for Mutant p53 Protein, Percent Reduction Relative to Vehicle Control / Total p53 Protein, Percent Reduction Relative to Vehicle Control / WT p53 Protein, Fold Change over Vehicle Control: MT373 tumors
Procedure: Tumor Lysate Preparation: Lysis buffer was added to tumor samples and homogenized using a TissueLyser LT. Homogenized samples were spun by centrifuge for 30 minutes at 20817×g, and the supernatant transferred to a 1.5-mL tube. Protein samples were quantified, aliquoted into 96-well plates, and stored at −80° C.
Tumor lysates were diluted in blocking buffer such that the required protein amount is added to the plate in a 100 μL volume (WT p53 7.5 μg; mutant p53 2.5 μg; Total p53 2.5 μg). […] Plates were washed, and the reaction was developed using TMB for approximately 5 minutes and quenched with 0.16 M sulfuric acid. […] A background measurement was subtracted from the treated samples' signals. The signals were normalized to the respective vehicle controls.

## CCn1c(C#CCNc2ccccc2)cc2cc(CNC3CCN(C)CC3)ccc21 [Compound 1, 1-Anilino-3-{1-ethyl-5-[(1-methyl-4-piperidylamino)methyl]-1H-indol-2-yl}-2-propyne]
75 mg/kg BIDx1 PO, 8 h
  Mutant p53 Protein, Percent Reduction Relative to Vehicle Control: 53.91%
  Total p53 Protein, Percent Reduction Relative to Vehicle Control: 35.06%
  WT p53 Protein, Fold Change over Vehicle Control: 1.25 fold
75 mg/kg BIDx1 PO, 24 h
  Mutant p53 Protein, Percent Reduction Relative to Vehicle Control: 79.50%
  Total p53 Protein, Percent Reduction Relative to Vehicle Control: 72.38%
  WT p53 Protein, Fold Change over Vehicle Control: 1.13 fold
75 mg/kg BIDx1 PO, 48 h
  Mutant p53 Protein, Percent Reduction Relative to Vehicle Control: 67.23%
  Total p53 Protein, Percent Reduction Relative to Vehicle Control: 63.03%
  WT p53 Protein, Fold Change over Vehicle Control: 1.02 fold
75 mg/kg BIDx1 PO, 72 h
  Mutant p53 Protein, Percent Reduction Relative to Vehicle Control: 16.87%
  Total p53 Protein, Percent Reduction Relative to Vehicle Control: 19.65%
  WT p53 Protein, Fold Change over Vehicle Control: 1.11 fold
75 mg/kg BIDx1 PO, 98 h
  Mutant p53 Protein, Percent Reduction Relative to Vehicle Control: 0.00%
  Total p53 Protein, Percent Reduction Relative to Vehicle Control: 0.00%
  WT p53 Protein, Fold Change over Vehicle Control: 1.13 fold
75 mg/kg BIDx1 PO, […]
  Mutant p53 Protein, Percent Reduction Relative to Vehicle Control: 45.58%
  Total p53 Protein, Percent Reduction Relative to Vehicle Control: 44.67%
  WT p53 Protein, Fold Change over Vehicle Control: 0.88 fold
75 mg/kg BID×1 PO, 8 h
  increase in WT conformation p53: 1.25 fold
150 mg/kg BIDx1 PO, 8 h
  Mutant p53 Protein, Percent Reduction Relative to Vehicle Control: 82.30%
  Total p53 Protein, Percent Reduction Relative to Vehicle Control: 56.64%
  WT p53 Protein, Fold Change over Vehicle Control: 1.45 fold
150 mg/kg BIDx1 PO, 24 h
  Mutant p53 Protein, Percent Reduction Relative to Vehicle Control: 93.74%
  Total p53 Protein, Percent Reduction Relative to Vehicle Control: 81.75%
  WT p53 Protein, Fold Change over Vehicle Control: 1.08 fold
150 mg/kg BIDx1 PO, 48 h
  Mutant p53 Protein, Percent Reduction Relative to Vehicle Control: 81.64%
  Total p53 Protein, Percent Reduction Relative to Vehicle Control: 81.46%
  WT p53 Protein, Fold Change over Vehicle Control: 0.94 fold
150 mg/kg BIDx1 PO, 72 h
  Mutant p53 Protein, Percent Reduction Relative to Vehicle Control: 58.64%
  Total p53 Protein, Percent Reduction Relative to Vehicle Control: 60.43%
  WT p53 Protein, Fold Change over Vehicle Control: 0.86 fold
150 mg/kg BIDx1 PO, 98 h
  Mutant p53 Protein, Percent Reduction Relative to Vehicle Control: 0.00%
  Total p53 Protein, Percent Reduction Relative to Vehicle Control: 0.60%
  WT p53 Protein, Fold Change over Vehicle Control: 0.95 fold
150 mg/kg BIDx1 PO, […]
  Mutant p53 Protein, Percent Reduction Relative to Vehicle Control: 34.14%
  Total p53 Protein, Percent Reduction Relative to Vehicle Control: 32.40%
  WT p53 Protein, Fold Change over Vehicle Control: 0.86 fold
150 mg/kg BID×1 PO, 8 h
  increase in WT conformation p53: 1.45 fold

Source: patent US20230049952A1, “METHODS AND COMPOUNDS FOR RESTORING MUTANT P53 FUNCTION” (PMV Pharmaceuticals, Inc., priority 2020, published 2023)
